How the values were obtained:
rat PTH1R = target: T1, rat PTH1R (Rattus norvegicus, UniProt P25961); experiment: In vitro cAMP signaling activity via the rat PTH1R (LLC-PK46_RATO_PTH1R cells); type: cell-based; conditions: LLC-PK46_RATO_PTH1R cells overexpressing rat PTH1R
T1 construct: expressed in transfected cells
T1 sequence (P25961 27-591): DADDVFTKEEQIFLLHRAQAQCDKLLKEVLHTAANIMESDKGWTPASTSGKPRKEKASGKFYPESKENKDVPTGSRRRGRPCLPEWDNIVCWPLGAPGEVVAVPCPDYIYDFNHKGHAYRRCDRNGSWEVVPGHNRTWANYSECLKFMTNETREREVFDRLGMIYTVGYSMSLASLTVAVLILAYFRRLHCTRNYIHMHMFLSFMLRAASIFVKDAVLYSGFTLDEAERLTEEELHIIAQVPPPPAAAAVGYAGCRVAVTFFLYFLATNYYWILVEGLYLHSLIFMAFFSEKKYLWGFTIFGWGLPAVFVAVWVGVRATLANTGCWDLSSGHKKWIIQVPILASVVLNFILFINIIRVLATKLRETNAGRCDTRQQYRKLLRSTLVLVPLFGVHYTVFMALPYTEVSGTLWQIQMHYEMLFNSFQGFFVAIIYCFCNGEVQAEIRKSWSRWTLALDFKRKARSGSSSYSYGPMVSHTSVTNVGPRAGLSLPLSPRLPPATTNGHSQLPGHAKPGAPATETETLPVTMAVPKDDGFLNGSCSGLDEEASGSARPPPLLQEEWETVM
Text: Instead of HKRK-B7 cells, LLC-PK46_RATO_PTH1R cells overexpressing rat PTH1R, which were established at Chugai Pharmaceutical, were used to take measurements in a similar manner to Reference Test Example 1.

[1] = tested on: model rabbits with partially removed meniscus; experiment: Model rabbits with partially removed meniscus (osteoarthritis model), lesion area of articular cartilage; type: in vivo, rabbit; conditions: continuous administration to the knee joint by osmotic pump, 3.0 or 30 μg/mL, 14 days after surgery
Text: Twelve-week old male NZW rabbits (Oriental Yeast Co., Ltd.) were acclimated for five days, and then under isoflurane anesthesia, the lateral skin of the left knee joint was incised and the lateral collateral ligament and the sesamoid ligament were surgically removed to expose the lateral meniscus. The center of the lateral meniscus was excised at a width of 3 to 4 mm to produce an osteoarthritis model (Kikuchi T et al., Osteoarth Cart 1999; 4(2): 99-110). The tips of the three polyethylene tubes (PE60, Nippon Becton Dickinson Company) connected to three osmotic pumps (2ML1, Durect, Road Cupertino, Calif., US) that were embedded subcutaneously in the left femur were placed into the joint, and the drug solution was continuously administered to the knee joint. Each osmotic pump was filled with any of 1) vehicle control (50% dimethyl sulfoxide/50% physiological saline v/v); 2) Compound 7 at 3.0 μg/mL; or 3) Compound 7 at 30 μg/mL. […] Images of the surface structure of the lower leg bone were taken on a digital microscope (VHX-2000, Keyence Corporation), the area of the Indian ink-positive lesion site and the area of the entire lateral condyle were determined, and the proportion of the lesion site occupying the entire lateral condyle was calculated (FIG. 6).

[2] = tested on: human articular chondrocytes; experiment: Proteoglycan synthesis by human articular chondrocytes (35S-sulfate incorporation); type: cell-based; conditions: cultured for 13 days
Description: After purchase of cryopreserved human articular chondrocytes (Lot 2867, Cell Applications Inc.), the cells were thawed in a 37° C. water bath, 15 mL of Basal Medium supplemented with 10% Growth Supplement (Growth Medium, Cell Applications Inc.) was placed in a T75 culture flask (CORNING, Corning Japan K. K.) to culture the cells, and exchanged the next day with 15 mL of Growth Medium; and the cells were cultured for three days. Growth Medium was then removed, and HBSS (Cell Applications Inc.) was used to wash the chondrocyte layer. With addition of 1 mL of trypsin/EDTA solution (Cell Applications Inc.), this was left to stand at room temperature for approximately five minutes, and chondrocytes were detached from the flask. With 10 mL of Neutralization solution (Cell Applications Inc.) added, Bulker-Turk hemocytometer was used to determine the cell count, and the cells were then transferred to a 15-mL test tube for centrifugation (1,200 rpm for five minutes, Tomy Seiko Co., Ltd.) to produce a chondrocyte pellet. The supernatant was discarded, and the cells were placed in a 1.2% sodium alginate solution (25 mmol/L HEPES/150 mmol/L sodium chloride solution, pH7.0) at 2×10^6 cells/mL. This was drawn into a 1-mL syringe (Terumo Corporation) equipped with a 22G injection needle, five drops were added to each well of a 24-well plate (Corning Japan K.K.) containing 2 mL of 102 mmol/L aqueous CaCl2 solution, and this was left to stand for five minutes to form beads. Subsequently, this was washed three times with a 150 mmol/L sodium chloride solution and incubated for one day in Growth Medium, and the medium was exchanged with Basal Medium supplemented with 1% Growth supplement (Cell Applications Inc.). In this procedure, the following factors were added to the medium, and the cells were cultured for 13 days with three times of medium exchange performed per week.
On day 12 of culturing, ^35S-labeled sulfuric acid (PerkinElmer Japan Co., Ltd.) was added at 370 kBq/well, and the medium was collected 24 hours later into a test tube and stored at 4° C. To the alginate gel, a 55 mmol/L sodium citrate solution (Nacalai Tesque, Inc.; 1 mL/well) was added, and this was incubated at 37° C. for ten minutes for solation. This was collected into a microtube (Eppendorf AG) and then centrifuged (1,200 rpm, five minutes) to produce a chondrocyte pellet. […] The glass filter was transferred to a liquid scintillation counter vial, 5 mL of scintillator (Hionic-Fluor, PerkinElmer Japan Co., Ltd.) was added and radioactivity was measured on a liquid scintillation counter (TRI-CARB, PerkinElmer Japan Co., Ltd.).
The remaining 0.1 mL of the digested solution was used for DNA quantification. […]

Cc1cc(N2C(=O)NC(=O)C2(C)C)cc(C)c1CCS(=O)(=O)N1CCC2(CC1)N=C(c1ccc(OC(F)(F)F)cc1)NC2=O [Compound 7, 1-(3,5-dimethyl-4-(2-((4-oxo-2-(4-(trifluoromethoxy)phenyl)-1,3,8-triazaspiro[4.5]deca-1-en-8-yl)sulfonyl)ethyl)phenyl)-5,5-dimethylimidazolidine-2,4-dione]
EC20 (rat PTH1R): 500 nM | area of the lesion site in the articular cartilage of the lower leg bone [1]: reduce the area of the lesion site in a dose-dependent manner | radioactivity (proteoglycan synthesis, cpm/μg DNA) relative to the vehicle control ([2]; 10^−5 mol/L): 10 fold | radioactivity (proteoglycan synthesis, cpm/μg DNA) relative to the vehicle control ([2]; 10^−6 mol/L): 3 fold
